Laboratory results: patent publication US20180291468A1, “MARKERS OF TUMOR CELL RESPONSE TO ANTI-CANCER THERAPY” (REGENERON PHARMACEUTICALS, INC., priority 2013, published 2018)

Tests used:
Format in all cases: in vivo
[1] = system: PC3M prostate cancer tumor; test: miRNA marker levels after PC3M prostate cancer tumor implantation and anti-tumor drug
Procedure: (§1) Plasma samples (50 uL) were stored at −80° C. after receiving them. The samples were thawed on ice, and total RNA was isolated with the miRCURY RNA Isolation Kit for Biofluids (Exiqon) according to the supplied protocol (1 uL of Exiqon spike-in UniRT RNA mix was added to each sample before RNA isolation). RNA was eluted into 50 uL nuclease-free water, and either processed directly for cDNA synthesis of stored at −80° C. until that time. RNA from each sample was used to create cDNA in 40 uL reaction volume with the Universal cDNA Synthesis Kit II (Exiqon) according to the supplied protocol. RNA concentration for plasma samples is not quantitated; 8 uL each RNA sample is used without adjusting concentration. The 40 uL of cDNA per sample was then used to set-up qPCR directly or stored at −20° C. until use. The 40 uL cDNA was diluted into 4 mL of nuclease-free water, and then mixed with 4 mL 2X ExiLENT SYBR Green master mix (Exiqon) to create 8 mL qPCR mix, according to protocol supplied with miRNome Panels (Exiqon). The 8 ml master mix was then pipetted into the two 384-well plates (Exiqon microRNA Ready-to-Use PCR, Human panel I+II, V3.M), 10 ul per well according to the supplied protocol. The plates were briefly centrifuged, sealed, and run on the ABI Viia7 real time PCR thermocycler, using the PCR template program supplied by Exiqon. Results were exported as text files and then imported into the GenEx software (Exiqon) for analysis. Data pre-processing and analysis steps were performed according to the recommendations of the Exiqon Data Analysis Guide. Briefly, biological replicate were grouped, outliers were automatically detected and removed, Ct values higher than 37 were considered background and removed, missing data was filled by the GenEx software with an imputed value based on group mean. Cts for each sample were normalized to the global mean of all expressed miRNAs with a Ct<34.

[2] = system: COLO 205 human colorectal cancer cells; test: Drug efficacy in COLO 205 tumor-bearing mice (tumor burden)
Procedure: Immune compromised mice were injected with COLO 205 human colorectal cancer cells and tumors were allowed to develop, after which the mice were treated with either irinotecan or vehicle for 14 days. In a second control group, normal mice maintained in parallel but not bearing tumors were treated with either irinotecan or vehicle. […] During the course of drug treatment, blood plasma samples were taken from all mice at regular intervals from 3 to 14 days. RNA was prepared from the plasma samples and analyzed for miRNA content by a panel of quantitative PCR assays for approximately 700 miRNAs. The relative quantities of each miRNA assayed were normalized to the global mean in each sample and then compared between the paired groups: drug versus vehicle treatment in tumor-bearing mice; drug versus vehicle in tumor-free mice; and tumor bearing versus tumor-free mice. […]
We looked for miRNAs whose pattern of detection matched that in the mice treated with drug for 14 days. The pattern of quantification for these miRNAs—higher or lower in the drug treated mice compared to the vehicle treated controls—matched miRNAs from the 14 day time point. […] These 14 miRNAs form a signature of plasma miRNA content that correlates with drug efficacy late in the course of drug treatment and predicts efficacy early in the drug treatment regimen before any effects of irinotecan on tumor burden could be detected.

COLO 205 tumor = test: Plasma miRNA profiling by qPCR panel in COLO 205 tumor-bearing mice, drug versus vehicle; conditions: for miRNAs different upon drug treatment: Higher: plasma, relative to a vehicle-treated control, 3 days, matching 14 day pattern
Procedure: as §1
Immune compromised mice were injected with COLO 205 human colorectal cancer cells and tumors were allowed to develop, after which the mice were treated with either irinotecan or vehicle for 14 days. In a second control group, normal mice maintained in parallel but not bearing tumors were treated with either irinotecan or vehicle. […] During the course of drug treatment, blood plasma samples were taken from all mice at regular intervals from 3 to 14 days. RNA was prepared from the plasma samples and analyzed for miRNA content by a panel of quantitative PCR assays for approximately 700 miRNAs. The relative quantities of each miRNA assayed were normalized to the global mean in each sample and then compared between the paired groups: drug versus vehicle treatment in tumor-bearing mice; drug versus vehicle in tumor-free mice; and tumor bearing versus tumor-free mice. Samples were taken from six replicate mice for each time point in each of the categories.
To eliminate those miRNA differences that were the result of drug treatment alone, we examined the miRNA profiles in the irinotecan treated normal, tumor-free mice compared with the same type of mice treated with vehicle.
We looked for miRNAs whose pattern of detection matched that in the mice treated with drug for 14 days. The pattern of quantification for these miRNAs—higher or lower in the drug treated mice compared to the vehicle treated controls—matched miRNAs from the 14 day time point. We found three miRNAs, miR-30d-3p, miR-483-5p, and miR-708-3p, that were elevated in the drug treated tumor bearing mice compared with the vehicle controls and 11 miRNAs, miR-21-3p, miR-101-5p, miR-122-3p, miR-197-3p, miR-429, miR-501-3p, miR-509-3p, miR-598, miR-206, miR-885-5p, and miR-1972, that were lower in the drug treated mice compared with the controls. These 14 miRNAs form a signature of plasma miRNA content that correlates with drug efficacy late in the course of drug treatment and predicts efficacy early in the drug treatment regimen before any effects of irinotecan on tumor burden could be detected. […]

A549 lung cancer tumor = test: miRNA marker levels after A549 lung cancer tumor implantation and anti-tumor drug
Procedure: as §1

[3] = three days, matched 14 day time point
[4] = three days following administration

## CC(=O)O[C@@]12CO[C@@H]1C[C@H](O)[C@@]1(C)C(=O)[C@H](O)C3=C(C)[C@@H](OC(=O)[C@H](O)[C@@H](NC(=O)OC(C)(C)C)c4ccccc4)C[C@@](O)([C@@H](OC(=O)c4ccccc4)[C@H]21)C3(C)C [Docetaxel]
[1]; following administration
  level of certain miRNA markers that decrease upon tumor implantation (FIG. 7): increase
  level of certain miRNA markers that increase upon tumor implantation (FIG. 5): decrease
  level of miR-190, miR-153 and miR-92a-1 (FIG. 6): decrease
  level of miR-634 and miR-647 (FIG. 8): increase
[1]; prostate tumors (PC3M)
  particular miRNA marker levels upon administration to prostate tumors (FIG. 2): decrease

## CCc1c2c(nc3ccc(OC(=O)N4CCC(N5CCCCC5)CC4)cc13)-c1cc3c(c(=O)n1C2)COC(=O)[C@]3(O)CC [irinotecan]
[2]; after 14 days of drug treatment
  tumor burden in drug treated mice versus vehicle treated control group: significantly lower tumor burden
[2]; treated for only three days
  difference in tumor burden, drug versus vehicle: no significant difference in tumor burden
COLO 205 tumor; detectable in the vehicle treated mice
  detection of the 11 miRNAs in plasma of drug treated mice: undetectable
COLO 205 tumor; miR-483-5p
  miRNAs different upon drug treatment: Higher: miR-483-5p
COLO 205 tumor; miR-708-3p
  miRNAs different upon drug treatment: Higher: miR-708-3p
COLO 205 tumor; miR-30d-3p
  miRNAs different upon drug treatment: Higher: miR-30d-3p
COLO 205 tumor; [3]
  plasma miR-21-3p, miR-101-5p, miR-122-3p, miR-197-3p, miR-429, miR-501-3p, miR-509-3p, miR-598, miR-206, miR-885-5p and miR-1972 in drug treated mice compared with controls: lower
  plasma miR-30d-3p, miR-483-5p and miR-708-3p in drug treated tumor bearing mice compared with vehicle controls: elevated
COLO 205 tumor; tumor-bearing mice
  detection of miR-30d-3p and miR-708-3p in plasma of treated tumor-bearing mice: went from undetected to detected
  plasma miR-483-5p in treated tumor-bearing mice: increased

## N.N.[Cl][Pt][Cl] [Cisplatin]
A549 lung cancer tumor; lung tumors (A549)
  particular miRNA marker levels upon administration to lung tumors (FIG. 2): decrease
A549 lung cancer tumor; [4]
  level of certain miRNA markers that decrease upon tumor implantation (FIG. 3): increase
  level of certain miRNA markers that increase upon tumor implantation (FIG. 1): decrease
  level of miR-16-5p, miR-1208, miR-24-3p and miR-588 (FIG. 4): increase
